From patent US11007179B2, “Opioid receptor modulator dosage formulations” (Allergan Holdings Unlimited Company, priority 2013, dated 2021)

Legend:
stressed subjects = assay: gastrointestinal motility in stressed subjects, oral administration; type: in vivo
rats = assay: visceral hyperalgesia in rats, oral administration; type: in vivo
[1] = test system: stressed and non-stressed mice; settings: cited from earlier work

Compound	gastrointestinal (GI) motility (stressed subjects)	anti-visceral hyperalgesic effects (rats)	dose range of the effect [1]	gastrointestinal transit and fecal output [1]
COc1ccc(CN(C(=O)C(N)Cc2c(C)cc(C(N)=O)cc2C)C(C)c2nc(-c3ccccc3)c[nH]2)cc1C(=O)O (stereo not shown) [active ingredient]	efficacious in normalizing gastrointestinal (GI) motility	providing anti-visceral hyperalgesic effects		
CN(C)C(=O)C(CCN1CCC(O)(c2ccc(Cl)cc2)CC1)(c1ccccc1)c1ccccc1 [loperamide]			narrow dose range	completely prevented fecal output
